Assay results reported in ChEMBL document CHEMBL5465560, “Selectivity Literature for EUbOPEN Chemogenomic Library” (2024).

Columns and labels:
Settings in all cases: at 10 µM
[1] = molecular target: T1, Membrane-associated tyrosine- and threonine-specific cdc2-inhibitory kinase (Homo sapiens) (UniProt Q99640)
T1 sequence (whole entry): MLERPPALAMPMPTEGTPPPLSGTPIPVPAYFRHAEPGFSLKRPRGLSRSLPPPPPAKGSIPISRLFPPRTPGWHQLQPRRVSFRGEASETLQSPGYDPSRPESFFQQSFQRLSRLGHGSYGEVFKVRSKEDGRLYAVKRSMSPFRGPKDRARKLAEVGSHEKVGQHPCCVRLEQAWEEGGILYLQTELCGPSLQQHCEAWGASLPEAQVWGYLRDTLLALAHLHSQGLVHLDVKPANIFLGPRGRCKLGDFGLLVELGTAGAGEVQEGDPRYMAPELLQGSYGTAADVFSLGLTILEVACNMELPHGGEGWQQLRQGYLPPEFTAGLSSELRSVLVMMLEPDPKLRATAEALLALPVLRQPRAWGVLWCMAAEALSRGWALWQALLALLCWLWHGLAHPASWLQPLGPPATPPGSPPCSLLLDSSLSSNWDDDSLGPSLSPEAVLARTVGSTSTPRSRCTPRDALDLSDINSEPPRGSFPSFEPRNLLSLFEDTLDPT

[2] = molecular target: T2, Serine/threonine-protein kinase TAO2 (Homo sapiens) (UniProt Q9UL54); test: Selectivity interaction (KinomeScan (DiscoverX)) EUB0000666a TAOK2
T2 sequence (whole entry): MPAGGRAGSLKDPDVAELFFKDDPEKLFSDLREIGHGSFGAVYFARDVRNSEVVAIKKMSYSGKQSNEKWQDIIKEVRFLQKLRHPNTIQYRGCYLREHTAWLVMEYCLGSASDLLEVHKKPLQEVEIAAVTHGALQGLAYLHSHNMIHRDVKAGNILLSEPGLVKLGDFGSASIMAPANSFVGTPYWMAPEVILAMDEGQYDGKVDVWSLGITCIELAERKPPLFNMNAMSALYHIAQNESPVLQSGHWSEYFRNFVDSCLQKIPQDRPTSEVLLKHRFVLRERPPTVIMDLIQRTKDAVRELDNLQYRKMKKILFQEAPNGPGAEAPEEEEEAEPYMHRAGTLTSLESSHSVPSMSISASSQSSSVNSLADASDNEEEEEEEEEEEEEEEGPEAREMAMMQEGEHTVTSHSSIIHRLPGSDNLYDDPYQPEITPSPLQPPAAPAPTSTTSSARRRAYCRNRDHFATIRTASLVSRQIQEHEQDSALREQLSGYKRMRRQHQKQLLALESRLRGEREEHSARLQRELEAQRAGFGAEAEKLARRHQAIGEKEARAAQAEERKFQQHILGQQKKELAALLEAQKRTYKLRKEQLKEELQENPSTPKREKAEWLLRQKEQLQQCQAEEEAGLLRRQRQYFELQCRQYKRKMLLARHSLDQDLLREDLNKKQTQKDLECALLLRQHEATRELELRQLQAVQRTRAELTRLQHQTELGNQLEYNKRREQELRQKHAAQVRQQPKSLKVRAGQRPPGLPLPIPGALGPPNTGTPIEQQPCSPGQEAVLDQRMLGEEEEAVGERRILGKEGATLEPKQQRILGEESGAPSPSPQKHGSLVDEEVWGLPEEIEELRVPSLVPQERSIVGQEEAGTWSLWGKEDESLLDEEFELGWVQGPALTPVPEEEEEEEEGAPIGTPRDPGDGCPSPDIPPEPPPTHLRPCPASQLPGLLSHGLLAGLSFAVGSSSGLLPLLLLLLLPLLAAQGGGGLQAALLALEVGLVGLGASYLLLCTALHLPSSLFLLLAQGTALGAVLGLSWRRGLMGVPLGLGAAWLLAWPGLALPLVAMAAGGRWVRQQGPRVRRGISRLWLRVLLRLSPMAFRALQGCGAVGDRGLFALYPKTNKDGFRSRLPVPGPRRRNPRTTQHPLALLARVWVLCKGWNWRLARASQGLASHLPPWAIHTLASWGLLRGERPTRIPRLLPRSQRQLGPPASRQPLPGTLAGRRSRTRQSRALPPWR

[3] = molecular target: T3, Bone morphogenetic protein receptor type-2 (Homo sapiens) (UniProt Q13873); test: Selectivity interaction (KinomeScan (DiscoverX)) EUB0000595a BMPR2
T3 sequence (whole entry): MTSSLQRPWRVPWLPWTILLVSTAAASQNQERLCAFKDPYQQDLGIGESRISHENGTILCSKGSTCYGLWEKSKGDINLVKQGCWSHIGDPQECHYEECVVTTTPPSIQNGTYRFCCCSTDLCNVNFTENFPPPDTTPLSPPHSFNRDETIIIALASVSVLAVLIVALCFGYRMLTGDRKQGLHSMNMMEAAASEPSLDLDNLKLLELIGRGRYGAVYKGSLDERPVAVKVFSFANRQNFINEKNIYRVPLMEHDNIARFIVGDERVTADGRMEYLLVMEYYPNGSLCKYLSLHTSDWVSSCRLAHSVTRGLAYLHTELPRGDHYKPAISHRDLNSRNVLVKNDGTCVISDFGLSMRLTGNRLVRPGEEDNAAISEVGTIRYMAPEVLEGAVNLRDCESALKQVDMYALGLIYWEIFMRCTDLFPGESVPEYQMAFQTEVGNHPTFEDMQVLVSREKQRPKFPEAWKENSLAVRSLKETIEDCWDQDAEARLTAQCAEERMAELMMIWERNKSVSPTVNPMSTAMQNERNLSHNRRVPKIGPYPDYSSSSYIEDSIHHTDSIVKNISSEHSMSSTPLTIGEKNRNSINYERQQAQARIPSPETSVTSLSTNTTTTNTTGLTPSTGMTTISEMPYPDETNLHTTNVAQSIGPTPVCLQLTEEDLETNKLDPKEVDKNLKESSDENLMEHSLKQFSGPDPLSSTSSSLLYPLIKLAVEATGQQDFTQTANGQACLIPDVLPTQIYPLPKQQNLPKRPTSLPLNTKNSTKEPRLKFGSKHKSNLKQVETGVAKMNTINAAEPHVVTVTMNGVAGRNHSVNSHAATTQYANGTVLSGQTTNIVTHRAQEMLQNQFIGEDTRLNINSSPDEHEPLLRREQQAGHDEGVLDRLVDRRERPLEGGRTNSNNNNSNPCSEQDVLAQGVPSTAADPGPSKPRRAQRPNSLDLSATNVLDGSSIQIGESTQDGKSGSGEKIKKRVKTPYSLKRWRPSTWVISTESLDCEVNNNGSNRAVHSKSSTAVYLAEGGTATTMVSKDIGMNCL

## CCN(CC)CCCCNc1ncc2cc(-c3cc(OC)cc(OC)c3)c(NC(=O)NC(C)(C)C)nc2n1
[1]
  % of control: 100%

## O=C(NOC[C@H](O)CO)c1ccc(F)c(F)c1Nc1ccc(I)cc1F
[2]
  % of control: 100%

## COCC(=O)NC/C=C/c1ccc2ncnc(Nc3ccc(Oc4ccc(C)nc4)c(C)c3)c2c1 [CP-724714]
[3]
  % of control: 74%
